Reference: ChEMBL document CHEMBL4828760, “Chalcogenides-incorporating carbonic anhydrase inhibitors concomitantly reverted oxaliplatin-induced neuropathy and enhanced antiproliferative action” (Eur J Med Chem, 2021)
Activity calls are given as the source filed them.

Tests used:
[1] = biological target: Carbonic anhydrase 9 (Homo sapiens, UniProt Q16790); test: Inhibition of recombinant human CA9 pre-incubated for 15 mins measured by phenol red dye based stopped flow CO2 hydration assay
[2] = system: Mus musculus; test: Antiallodynic activity in po dosed CD-1 albino mouse model of oxaliplatin-induced neuropathic pain assessed as reduction in pain-related behavior administered 14 days post oxaliplatin induction and measured upto 75 mins by cold plate test; format: functional, organism-based; conditions: dose 10-100 mg/kg, time 14.0 day
[3] = system: Mus musculus; test: Anti-hypersensitive activity in CD-1 albino mouse model of oxaliplatin-induced neuropathic pain assessed as restoration of normal pain threshold at 100 mg/kg, po administered 14 days post oxaliplatin induction and measured upto 75 mins by cold plate test; format: functional, organism-based; conditions: time min <=75
[4] = system: MCF7; test: Cytotoxicity against human MCF7 cells assessed as reduction in cell viability measured after 72 hrs under hypoxic condition by MTT assay; conditions: MCF7, 72 h
[5] = system: MCF7; test: Cytotoxicity against human MCF7 cells assessed as reduction in cell viability at 100 uM measured after 72 hrs under hypoxic condition in presence of cisplatin by MTT assay; format: functional, cell-based
[6] = system: MCF7; test: Cytotoxicity against human MCF7 cells assessed as reduction in cell viability at 100 uM measured after 72 hrs under hypoxic condition in presence of doxorubicin by MTT assay; format: functional, cell-based
[7] = system: Mus musculus; test: Anti-hypersensitive activity in CD-1 albino mouse model of oxaliplatin-induced neuropathic pain assessed as restoration of normal pain threshold at 30 to 100 mg/kg, po administered 14 days post oxaliplatin induction and measured upto 75 mins by cold plate test; format: functional, organism-based; conditions: dose 30-100 mg/kg, time min <=75
[8] = system: Mus musculus; test: Anti-hypersensitive activity in CD-1 albino mouse model of oxaliplatin-induced neuropathic pain assessed as restoration of normal pain threshold at 10 mg/kg, po administered 14 days post oxaliplatin induction and measured upto 75 mins by cold plate test; format: functional, organism-based; conditions: time min <=75

| Compound | Ki [1] [nM] | also measured |
| --- | --- | --- |
| NS(=O)(=O)c1ccc(SCC(O)C[Se]c2ccccc2)cc1 (stereo unspecified) | 29.2 | Activity [2]: Dose-Dependent Effect; Activity [3]: Active |
| COc1ccc([Se]CC(O)CSc2ccc(S(N)(=O)=O)cc2)cc1 (stereo unspecified) | 156 |  |
| COc1cc([Te]CC(O)CSc2ccc(S(N)(=O)=O)cc2)cc(OC)c1OC (stereo unspecified) | 187 | IC50 [4]: 125000 nM; Activity [5]: Active; Activity [6]: Active |
| NS(=O)(=O)c1ccc(SCC(O)CSc2cccc(Br)c2)cc1 (stereo unspecified) | 135 |  |
| NS(=O)(=O)c1ccc([Se]CC(O)C[Se]c2ccccc2)cc1 (stereo unspecified) | 84.5 | Activity [2]: Dose-Dependent Effect; Activity [7]: Active |
| C=CCOCC(O)C[Se]CC(O)CSc1ccc(S(N)(=O)=O)cc1 (stereo unspecified) | 241 |  |
| NS(=O)(=O)c1ccc([Se]CC(O)CSc2ncccn2)cc1 (stereo unspecified) | 31 |  |
| Cc1ccccc1[Se]CC(O)C[Se]c1ccc(S(N)(=O)=O)cc1 (stereo unspecified) | 29.4 |  |
| Cc1ccc([Te]CC(O)C[Se]c2ccc(S(N)(=O)=O)cc2)cc1 (stereo unspecified) | 152 |  |
| C=CCOCC(O)C[Se]CC(O)C[Se]c1ccc(S(N)(=O)=O)cc1 (stereo unspecified) | 157 |  |
| NS(=O)(=O)c1ccc([Se]CC(O)CSc2ccccc2)cc1 (stereo unspecified) | 288 | Activity [5]: inactive; Activity [6]: Active |
| NS(=O)(=O)c1ccc(SCC(O)CSc2ccccc2Br)cc1 (stereo unspecified) | 175 |  |
| CC(O)CSCC(O)C[Se]c1ccc(S(N)(=O)=O)cc1 (stereo unspecified) | 275 |  |
| NS(=O)(=O)c1ccc([Se]CC(O)CSc2ccc(Br)cc2)cc1 (stereo unspecified) | 172 | Activity [2]: Dose-Dependent Effect; Activity [8]: Active; Activity [7]: Active |
| CCCC[Se]CC(O)C[Se]c1ccc(S(N)(=O)=O)cc1 (stereo unspecified) | 208 |  |
| Cc1ccc(S(=O)(=O)N[C@@H](C)CSCC(O)CSc2ccc(S(N)(=O)=O)cc2)cc1 (stereo partly specified) | 193 |  |
| CCCC[Se]CC(O)CSc1ccc(S(N)(=O)=O)cc1 (stereo unspecified) | 164 | Activity [5]: Active; Activity [6]: Active |
